From patent US12582619B2 (priority 2020, dated 2026)
“Also recorded” adds a separate entry of the source.

What was measured:
Sigma1 = Sigma1 (Homo sapiens, UniProt Q99720); assay: Sigma1 binding, Ki
SARS-CoV-2 [1] = assay: Infection of Huh7.5 cells by replication competent SARS-CoV-2, qRT-PCR; type: cell-based; settings: 10 μM, 24 hours post inoculation
Protocol: FIG. 3 illustrates the finding that only certain Sigma1 inhibitors block SARS-CoV-2 infection. […] Results can be compared to vehicle (DMSO), Remdesivir (Rem, 10 μM), and hydroxychloroquine (HCQ, 10 μM). Compounds and SARS-CoV-2 were added to cell culture; 24 hours post inoculation relative infection calculated by qRT-PCR.
A discrete set of Sigma1 modulators was tested in an assay of replication competent SARS-CoV-2 infectivity. […] Strikingly, IPAG, CT189, and CT1107 blocked SARS-CoV-2 infection by 1,000 (IPAG, CT189, CT360) to 10,000 (CT1107) fold.

Androgen Receptor [2] = target: T1, Androgen Receptor (Homo sapiens, UniProt P10275); assay: cell-based
T1 sequence (P10275 1-920): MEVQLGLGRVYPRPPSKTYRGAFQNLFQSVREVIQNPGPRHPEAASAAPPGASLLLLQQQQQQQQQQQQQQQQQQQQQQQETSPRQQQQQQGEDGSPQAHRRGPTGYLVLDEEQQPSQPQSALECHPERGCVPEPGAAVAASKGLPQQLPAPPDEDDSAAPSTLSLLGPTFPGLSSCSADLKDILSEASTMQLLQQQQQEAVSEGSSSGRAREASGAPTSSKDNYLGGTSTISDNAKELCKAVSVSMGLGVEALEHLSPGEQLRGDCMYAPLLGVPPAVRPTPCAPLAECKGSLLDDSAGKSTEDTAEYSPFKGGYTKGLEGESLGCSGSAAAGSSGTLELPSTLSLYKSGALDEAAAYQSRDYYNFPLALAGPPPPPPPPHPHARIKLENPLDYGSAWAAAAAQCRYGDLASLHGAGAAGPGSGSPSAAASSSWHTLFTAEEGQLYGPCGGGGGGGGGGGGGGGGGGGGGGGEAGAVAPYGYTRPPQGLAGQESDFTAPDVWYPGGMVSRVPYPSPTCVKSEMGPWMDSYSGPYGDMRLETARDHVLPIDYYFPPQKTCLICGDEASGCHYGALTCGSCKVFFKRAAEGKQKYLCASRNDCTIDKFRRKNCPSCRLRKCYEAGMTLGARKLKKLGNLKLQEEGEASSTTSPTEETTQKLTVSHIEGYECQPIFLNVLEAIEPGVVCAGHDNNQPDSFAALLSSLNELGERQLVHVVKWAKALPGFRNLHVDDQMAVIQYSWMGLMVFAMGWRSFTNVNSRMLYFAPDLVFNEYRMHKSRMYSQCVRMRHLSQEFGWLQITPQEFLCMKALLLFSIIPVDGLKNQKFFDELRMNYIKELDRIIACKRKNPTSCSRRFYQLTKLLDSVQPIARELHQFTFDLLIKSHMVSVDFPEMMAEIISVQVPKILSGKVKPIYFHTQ

Dengue Virus = assay: Dengue virus infection of U2OS cells, qPCR; type: cell-based; settings: MOI 1, ~16-18 hours, CT110 10 μM, CT1107 2.5-10 μM, FIG. 10
Protocol: (§1) U2OS cells were treated with DMSO or 10 μM of CT110 (also known as CT189, left graph) or DMSO or 2.5 μM, 5 μM, 7.5 μM, and 10 μM CT1107 (right graph). 2 hours after starting treatment, U2OS cells were infected with a multiplicity of infection (MOI) of 1 for Dengue Virus and incubated at 37° C. for ˜16-18 hours. Cells were harvested with Trizol and RNA was extracted for qPCR. Y-axis indicates fold change in infection.

Zika Virus = assay: Zika virus infection of U2OS cells, qPCR; type: cell-based; settings: MOI 1, ~16-18 hours, CT110 10 μM, CT1107 2.5-10 μM, FIG. 11
Protocol: as §1, with “Zika” for “Dengue”

Powassan Virus = type: cell-based; settings: U2OS, MOI 1, ~16-18 hours; CT110 10 μM, CT1107 2.5-10 μM, FIG. 12
Androgen Receptor [3] = target: T1, Androgen Receptor
[4] = test system: Vero E6 cells expressing SARS-CoV-2 spike and human TMPRSS2; type: cell-based; settings: Vero E6, 10 μM vs DMSO
human TMPRSS2 = type: cell-based; settings: Vero E6 lysates, 10 μM, FIG. 7
SARS-CoV-2 [5] = assay: SARS-CoV-2 infection of VeroE6/TMPRSS2 cells, qRT-PCR; type: cell-based; settings: VeroE6/TMPRSS2 cells, 5, 7.5, 10 μM, 48 hours, FIG. 8
Protocol: (§2) FIG. 8 illustrates results obtained when VeroE6/TMPRSS2 or Caco2 cells were treated with DMSO or 5 μM, 7.5 μM, and 10 μM CT1107 and infected with SARS-CoV-2 for 48 hours. RNA was isolated and qRT-PCR was performed with virus-specific and 18S primers. Viral RNA was normalized to 18S RNA.
(§3) It was tested whether Sigma1-targeting compounds are antiviral in additional cell lines. VeroE6 cells stably expressing TMPRSS2and Caco-2 (human colorectal epithelial cells) were tested. […] In certain embodiments, these compounds are antiviral in primary respiratory epithelial cells.

SARS-CoV-2 [6] = assay: SARS-CoV-2 infection of Caco2 cells, qRT-PCR; type: cell-based; settings: Caco2 cells, 5, 7.5, 10 μM, 48 hours, FIG. 8
Protocol: as §2, §3

[7] = test system: VeroE6 cells stably expressing TMPRSS2; assay: Toxicity in VeroE6/TMPRSS2 cells; type: cell-based; settings: VeroE6/TMPRSS2 cells, 5, 7.5, 10 μM
Protocol: as §3

[8] = test system: Caco-2 (human colorectal epithelial cells); assay: Toxicity in Caco-2 cells; type: cell-based; settings: Caco-2 cells, 5, 7.5, 10 μM
Protocol: as §3

TMPRSS2 mRNA transcript = assay: TMPRSS2 transcript levels in LNCaP cells; settings: 10 μM, FIG. 1B

Sigma1, sequence (Q99720 whole entry): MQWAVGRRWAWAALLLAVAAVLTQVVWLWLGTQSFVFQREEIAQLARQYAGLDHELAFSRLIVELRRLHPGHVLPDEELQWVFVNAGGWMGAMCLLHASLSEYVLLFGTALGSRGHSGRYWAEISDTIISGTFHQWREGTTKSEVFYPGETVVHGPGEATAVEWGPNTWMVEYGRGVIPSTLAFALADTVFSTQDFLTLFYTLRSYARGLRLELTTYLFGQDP

SMILES | Ki (Sigma1) [nM] | effect on SARS-CoV-2 infection (in words) (SARS-CoV-2 [1]; FIG. 3) | IC50 (Androgen Receptor [2]) [µM] | also measured
COC(=O)c1ccc(NC(=N)NCC(C)(C)COc2ccc(C(F)(F)F)cc2)nc1 [Compound H, methyl 6-(3-(2,2-dimethyl-3-(4-(trifluoromethyl)phenoxy)propyl)guanidino)nicotinate] | 18 | inhibit SARS-CoV-2 infection | 2.9 | blocked SARS-CoV-2 infection, fold (SARS-CoV-2 [1]; FIG. 3): 1,000 fold
COC(=O)c1ccc(NC(=N)NCCC(C)(C)c2ccc(C(F)(F)F)cc2)nc1 [Compound G, methyl 6-(3-(3-methyl-3-(4-(trifluoromethyl)phenyl)butyl)guanidino)nicotinate] | 3 |  | 2.8 | 
CC(C)(CCNC(=N)Nc1ccc(Cl)c(Cl)c1)Oc1ccc(C(F)(F)F)cc1 [Compound D, 1-(3,4-dichlorophenyl)-3-(3-methyl-3-(4-(trifluoromethyl)phenoxy)butyl)guanidine] | 8 |  | 3 | 
N=C(NCCCOc1ccc(F)cc1)Nc1ccc(Cl)cc1 [CT189] |  | suppressed SARS-CoV-2 infection; also recorded: inhibit SARS-CoV-2 infection |  | blocked SARS-CoV-2 infection, fold (SARS-CoV-2 [1]; FIG. 3): 1,000 fold; Dengue virus infection (fold change in infection) (Dengue Virus): inhibit dengue virus infection; Zika virus infection (fold change in infection) (Zika Virus): inhibit Zika virus infection; Powassan virus infection (fold change in infection) (Powassan Virus): inhibit Powassan virus infection; dihydrotesterone (DHT) induced AR transcriptional activity (Androgen Receptor [3]): inhibition
COc1cc(NC(=N)NCCC(C)(C)Oc2ccc(C(F)(F)F)cc2)cnc1C#N [Compound J, 1-(6-cyano-5-methoxypyridin-3-yl)-3-(3-methyl-3-(4-(trifluoromethyl)phenoxy)butyl)guanidine] | 7 |  | 8.5 | 
Cc1cc(OCCN2CCOCC2)nn1-c1ccc2ccccc2c1 [Compound S1RA, 4-[2-[[5-methyl-1-(2-naphthalenyl)-1H-pyrazol-3-yl]oxy]ethyl]morpholine, reference compound] |  | did not block infection; also recorded: does not block infection |  | 
COc1ccc(CCN2CCN(CCCc3ccccc3)CC2)cc1OC [SA4503, 1-(3,4-dimethoxyphenethyl)-4-(3-phenylpropyl) piperazine, reference compound] |  | did not block infection |  | 
COc1cc(NC(=N)NCCC(C)(C)c2ccc(C(F)(F)F)cc2)ncc1C#N [Compound F, 1-(5-cyano-4-methoxypyridin-2-yl)-3-(3-methyl-3-(4-(trifluoromethyl)phenyl)butyl)guanidine] | 11 |  | 3 | blocked SARS-CoV-2 infection, fold (SARS-CoV-2 [1]; FIG. 3): 10,000 fold; effect on SARS-CoV-2 infection (in words) (SARS-CoV-2 [1]; FIG. 3, listed as CT1107): suppressed SARS-CoV-2 infection; also recorded: inhibit SARS-CoV-2 infection; also recorded: most potent inhibitor of CoV-2 infection; number of syncytia ([4]; FIG. 5): significant decrease; size of syncytia (number of nuclei per syncytia) ([4]; FIG. 6): significant decrease; TMPRSS2 protein level (human TMPRSS2): clear decrease; antiviral effect on SARS-CoV-2 (SARS-CoV-2 [5]): potently antiviral; antiviral effect on SARS-CoV-2 (SARS-CoV-2 [6]): potently antiviral; toxicity [7]: without toxicity; toxicity [8]: without toxicity; Dengue virus infection (fold change in infection) (Dengue Virus): inhibit dengue virus infection; Zika virus infection (fold change in infection) (Zika Virus): inhibit Zika virus infection; Powassan virus infection (fold change in infection) (Powassan Virus): inhibit Powassan virus infection
O=C(CCCN1CCC(O)(c2ccc(Cl)cc2)CC1)c1ccc(F)cc1 [haloperidol, 4-[4-(4-chlorophenyl)-4-hydroxypiperidin-1-yl]-1-(4-fluorophenyl)butan-1-one, reference compound] |  | suppressed SARS-CoV-2 infection |  | effect on SARS-CoV-2 infection (in words) (SARS-CoV-2 [1]; FIG. 3, listed as Haloperidol): clear but modest antiviral effect
CC(C)(CCNC(=N)Nc1cnc(C(F)(F)F)nc1)Oc1ccc(C(F)(F)F)cc1 [Compound I, 1-(3-methyl-3-(4-(trifluoromethyl)phenoxy)butyl)-3-(2-(trifluoromethyl)pyrimidin-5-yl)guanidine] | 35 |  | 10.5 | 
COc1cc(NC(=N)NCC(C)(C)COc2ccc(C(F)(F)F)cc2)cnc1C#N [Compound B, 1-(6-cyano-5-methoxypyridin-3-yl)-3-(2,2-dimethyl-3-(4-(trifluoromethyl)phenoxy)propyl)guanidine] | 6 |  | 10 | 
COc1cc(NC(=N)NCCC(C)(C)Oc2ccc(C(F)(F)F)cc2)cnc1C#N [Compound A, 1-(6-cyano-5-methoxypyridin-3-yl)-3-(3-methyl-3-(4-(trifluoromethyl)phenoxy)butyl)guanidine] | 9 |  | 8.1 | 
N=C(Nc1ccc(I)cc1)NC1C2CC3CC(C2)CC1C3 (centres unmarked) [IPAG, reference compound] |  | suppressed SARS-CoV-2 infection; also recorded: inhibit SARS-CoV-2 infection |  | blocked SARS-CoV-2 infection, fold (SARS-CoV-2 [1]; FIG. 3): 1,000 fold; dihydrotesterone (DHT) induced AR transcriptional activity (Androgen Receptor [3]): inhibition; TMPRSS2 transcript (TMPRSS2 mRNA transcript): decreased
O=C(OCCN1CCOCC1)C1(c2ccccc2)CCCCC1 [PRE084, 2-morpholin-4-ylethyl 1-phenylcyclohexane-1-carboxylate, reference compound] |  | did not block infection |  | 
CC(C)(CCNC(=N)Nc1cnc(Cl)c(F)c1)Oc1ccc(C(F)(F)F)cc1 [Compound E, 1-(6-chloro-5-fluoropyridin-3-yl)-3-(3-methyl-3-(4-(trifluoromethyl)phenoxy)butyl)guanidine] | 5 |  | 5 | 
